# From US5015661A, “Chromanes and their pharmaceutical compositions and methods” (Hoffmann-La Roche Inc., priority 1989, dated 1991)
# Assays:
# [1] = molecular target: T1, Δ^5 -lipoxygenase from rat basophilic leukemia (RBL-1) cells (Rattus norvegicus, UniProt P12527); test: In vitro test for Δ^5 -lipoxygenase inhibitors (5-LO), RBL-1 cell enzyme, 5-HETE radioimmunoassay; assay type: biochemical; conditions: RBL-1 5-LO; 10 min preincubation; 8.25 μM arachidonic acid, 10 min at 37° C.; 5-HETE formation; read-out: 5-LO IC-50
# T1 construct: endogenous in cells; host or cells: RBL-1 rat basophilic leukemia cells (ATCC CRL 1378); 113,000×g supernatant (cytosolic fraction)
# T1 sequence (P12527 1-673): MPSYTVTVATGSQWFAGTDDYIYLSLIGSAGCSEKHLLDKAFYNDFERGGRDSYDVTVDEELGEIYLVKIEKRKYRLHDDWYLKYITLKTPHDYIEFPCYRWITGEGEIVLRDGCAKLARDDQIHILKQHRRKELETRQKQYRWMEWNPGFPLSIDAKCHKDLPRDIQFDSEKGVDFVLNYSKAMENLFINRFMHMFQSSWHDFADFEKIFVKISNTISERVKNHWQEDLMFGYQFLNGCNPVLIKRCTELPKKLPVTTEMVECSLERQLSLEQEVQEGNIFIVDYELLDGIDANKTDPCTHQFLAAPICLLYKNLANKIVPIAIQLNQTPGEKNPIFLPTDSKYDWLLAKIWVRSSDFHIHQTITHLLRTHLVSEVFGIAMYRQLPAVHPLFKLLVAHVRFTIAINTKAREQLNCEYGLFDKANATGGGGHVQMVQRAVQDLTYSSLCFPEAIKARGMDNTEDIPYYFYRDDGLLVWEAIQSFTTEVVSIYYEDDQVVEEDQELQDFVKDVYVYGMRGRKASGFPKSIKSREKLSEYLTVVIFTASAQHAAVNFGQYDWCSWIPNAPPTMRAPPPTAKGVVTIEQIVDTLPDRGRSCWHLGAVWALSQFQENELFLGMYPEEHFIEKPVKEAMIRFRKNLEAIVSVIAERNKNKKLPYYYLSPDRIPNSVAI
# Description: IN VITRO TEST FOR Δ^5 -LIPOXYGENASE INHIBITORS Compounds of formula I of the invention were tested for their effect on Δ^5 -lipoxygenase from rat basophilic leukemia (RBL-1) cells. Materials. RBL-1 cells (CRL 1378) were obtained from the American TYpe Culture Collection, Rockville, MD. DMEM and glutamine were purchased from Flow Labs, McLean, VA. FBS (Gibco, Grand Island, NY) was heat-inactivated for 1 hour at 56° C. Reagents for protein determinations were obtained from Biorad, Rockville Center, NY. Arachidonic acid (approx. 99%), ATP (disodium slat), BHT, dextran (clinical grade), tetrasodium EDTA, gelatin, gentamycin sulfate solution, reduced glutathione, 1 M HEPES buffer, indomethacin, NaCl, reduced NADpH, Trizma 7.2, and Trizma 8.5 were purchased from Sigma Chemical, St. Louis, MO. CaCl2 dihydrate, Norit A charcoal, and citric acid monohydrate were obtained from Fisher Scientific, Pittsburgh, PA. […] MA. A synthetic 5-HETE standard was supplied by Dr. M. Rosenberger, Dept. of Medicinal Chemistry, Hoffmann-La Roche, Nutley, NJ; [see Corey, E.J., and Hashimoto, S. (1981 ) Tet. Letters, 22, 299-302 for method of preparation]. Ecoscint liquid sointillation fluid was purchased from National Diagnostics, Sommerville, NJ. Isolation of 5-lipoxygenase. […] Approximately 7-9 days after thawing, RBL-1 cells growing in log phase were seeded at a density of 7500 viable cells/ml in a closed 89-liter spinner flask. The cells were stirred constantly for 3-4 days at 37° C. until they reached a density greater than 500,000/ml but less than 800,00/ml. RBL-1 cells were harvested by centrifugation at 4° C. at 1500×g for 10 minutes and were washed 3 times with ice cold 0.05 M tris-HCl, pH 7.2, tetrasodium EDTA (buffer 1). The cells were washed last in 0.05 M Tris-HCl containing 14 μM indomethacin, 1 mM glutathione, 1.5 mM NaCl, and 1 mM tetrasodium EDTA (buffer 2), resuspended at a density of 5×108'/ml (approximately 10 ml) and disrupted manually at 4° C. using a 40 ml Dounce (type A pestle) homogenizer. After 5 minutes of homogenization. 95% cell lysis was confirmed by phase contrast microscopy. The broken cells were diluted 1:2 with buffer 2 and centrifuged at 12,380×g for 10 minutes at 4° C. to pellet cellular debris and granules. The 12,380×g supernatant was centrifuged at 113,000×g for 60 minutes to pellet microsomes. The high-speed supernatant (5.9±0.48 mg/ml protein) was frozen immediately in 1 ml aliquots using a dry ice/acetone bath. The isolated cytosolic fraction was stored in liquid N2 for up to 8 weeks without loss of 5-LO enzyme activity. Lipoxygenase Assay. Compounds Were dissolved at 25 mM concentration in DMSO, then diluted to final concentrations using 95% ethanol. For a typical enzyme assay, the partially purified 5-LO preparation was preincubated with drug or vehicle for 10 minutes at 30° C. The assay tubes were then transferred at a 37° C. water bath where they received arachidonic acid (8.25 μM final concentration) to initiate 5-LO activity. In addition to enzyme and substrate, each reaction tube contained: 12.5 μmoles of Tris-HCl (pH 7.2), 25 nmoles glutathione, 0.35 nmoles indomethacin and 1.25 μmoles of CaCl2 and ATP to yield a total of volume of 250 μl. The enzyme reaction was terminated after 10 minutes by the addition of 75μl […] citric acid to yield pH 3.5. The samples were immediately cooled on ice and neutralized by dilution with 0.05 M Tris-HCl, pH 8.5, which contained 25 mg/1 BHT. A boiled cytosol control was placed at the end of each assay to measure non-enzymatic oxidation of arachidonic acid. The mean specific activity of the 5-LO enzyme preparation was approximately 66.16±14.39 pmol 5-HETE/min/mg protein. Radioimmunoassay for 5-HETE. Under the assay conditions described, the 5-LO catalyzed the conversion of arachidonic acid to 5-HPETE which, as a consequence o peroxidase activity, was reduced to 5-HETE. A specific radioimmunoassay was employed to quantitate the amount (pmoles) of 5-HETE formed during the enzyme reaction. […]
# [2] = tested on: arachidonic acid-induced mouse ear edema; test: Mouse ear edema test (in vivo), arachidonic acid-induced; conditions: 1 mg topical, CD-1 male mice, 0.5 mg arachidonic acid 0.5 or 4 hours later, ear biopsy weight after 1 hour, read-out: EAR EDEMA % INHIB. 1 mg
# Description: MOUSE EAR EDEMA TEST (IN VIVO)
# In this animal model system, the application of arachidonic acid to the ear results in the biosynthesis of the metabolic products […]-6,8,11,14-eicosatetraenoic acid (5-HETE), leukotriene B4 (LTB4), leukotriene C4 (LTC4), […]-5,8,10,14-eicosatetraenoic acid (12-HETE), and prostaglandin E2 (PGE2) at the site of application, followed by the influx of neutrophils into the site and the rapid development of edema within 30 to 60 minutes (See, for instance, Young, Wagner and Spries, "Tachyphylaxis in 12-O-Tetradecanoylphorbol Acetate And Arachidonic Acid-Induced Ear Edma," J. Invest. Dermatol. 80:48 (1983) and Hames, Opas and Bonney, "Arachidonic Acid MetaboIites in Mouse Ear Edma" Advances in Inflammation Research. 11:57 (1986).
# CD-1 male mice weighing 15 to 25 g were employed, and they were designated as follows: (1) Control Group, in which no arachidonic acid or test compound was to be applied, (2) Arachidonic Acid-Treated Group, in which no test compound was to be applied, and (3) Treated Group, in which the test compound was to be applied first, followed by the application of arachidonic acid.
# In the case of the Group (3) animals, the test compound, dissolved in acetone, was applied to the dorsal surface of the right ear of the mouse with a 25-microliter pipette or, with the dose of the test compound being varied. After 0.5 hours in some cases and 4 hours in others, the arachidonic acid was topically applied in the same manner as above to the pretreated ear areas. In each case of arachidonic acid application, an amount of 0.5 mg dissolved in 25 microliters of acetone was used. After 1 hour, the mice were sacrificed by carbon dioxide inhalation. A 6mm-diameter standard biopsy punch was used to obtain a uniform tissue sample from the ear of each mouse so treated, and the tissue samples were weighted to the nearest 0.1 mg. The percent inhibition of ear edema formation was calculated as follows: [formula]
IC50 [1] [nM],SMILES,inhibition in vivo at 1 mg [2] [%]
1,"COc1cc(C=O)cc2cc(C3(C)CCc4c(C)c(O)c(C)c(C)c4O3)oc12 (racemic) [Example 54, rac-2-(3,4-Dihydro-6-hydroxy-2,5,7,8-tetramethyl-2H-1-benzopyran-2-yl)-7-methoxy-5-benzofurancarboxaldehyde]",40
110,"Cc1c(C)c2c(c(C)c1O)CCC(C)(CCc1ccccc1)O2 (stereo not shown) [Example 56, 3,4-Dihydro-2,5,7,8-tetramethyl-2-(2-phenylethyl)-2H-1-benzopyran-6-ol]",64
